“And” between values parts separate entries of the source, which are not always exact repeats. Equal entries are not always repeated. Toxic doses and inconclusive results are not listed. The calls were made as follows: active = survival T/C of 150% or more; inactive = T/C below 125% in these data.
Test system: BDF1 mice, P388 leukemia ip, median survival T/C
Assay: NCI In Vivo Anticancer Drug Screen. Data for tumor model P388 Leukemia (intraperitoneal) in B6D2F1 (BDF1) mice
Details: endpoint: median survival time, higher = longer survival
In short: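 Read-out is survival of treated animals expressed relative to the vehicle group, as a T/C ratio.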

[1] = dose: 100.0 mg/kg/injection, schedule: Q01DX009 (ip), vehicle: Klucel (hydroxypropylcellulose) (HPC)
[2] = dose: 50.0 mg/kg/injection, schedule: Q01DX009 (ip), vehicle: water
[3] = dose: 100.0 mg/kg/injection, schedule: Q01DX009 (ip), vehicle: water
[4] = dose: 25.0 mg/kg/injection, schedule: Q01DX009 (ip), vehicle: saline with Tween-80
[5] = dose: 50.0 mg/kg/injection, schedule: Q01DX009 (ip), vehicle: saline with Tween-80
[6] = dose: 100.0 mg/kg/injection, schedule: Q04DX003 (ip), vehicle: saline with Tween-80
[7] = dose: 200.0 mg/kg/injection, schedule: Q01DX009 (ip), vehicle: water
[8] = dose: 200.0 mg/kg/injection, schedule: Q04DX003 (ip), vehicle: saline with Tween-80
[9] = dose: 12.5 mg/kg/injection, schedule: Q04DX003 (ip), vehicle: saline
[10] = dose: 25.0 mg/kg/injection, schedule: Q04DX003 (ip), vehicle: saline
[11] = dose: 200.0 mg/kg/injection, schedule: Q01DX009 (ip), vehicle: Klucel (hydroxypropylcellulose) (HPC)
[12] = dose: 200.0 mg/kg/injection, schedule: Q04DX003 (ip), vehicle: Klucel (hydroxypropylcellulose) (HPC)
[13] = dose: 400.0 mg/kg/injection, schedule: Q01DX009 (ip), vehicle: Klucel (hydroxypropylcellulose) (HPC)
[14] = dose: 400.0 mg/kg/injection, schedule: Q04DX003 (ip), vehicle: Klucel (hydroxypropylcellulose) (HPC)
[15] = dose: 12.5 mg/kg/injection, schedule: Q01DX009 (ip), vehicle: saline
[16] = dose: 25.0 mg/kg/injection, schedule: Q01DX009 (ip), vehicle: saline
[17] = dose: 50.0 mg/kg/injection, schedule: Q01DX009 (ip), vehicle: saline

Measured: T/C

Cc1n[nH]c(=O)[nH]c1=O
inactive: dose: 12.5 mg/kg/injection, schedule: Q01DX009 (ip), vehicle: Klucel (hydroxypropylcellulose) (HPC) 100 % of control | dose: 25.0 mg/kg/injection, schedule: Q01DX009 (ip), vehicle: Klucel (hydroxypropylcellulose) (HPC) 109 % of control | dose: 50.0 mg/kg/injection, schedule: Q01DX009 (ip), vehicle: Klucel (hydroxypropylcellulose) (HPC) 100 % of control | [1] 91 % of control

CC1CC(C)(C)[N+](C)=C(CC(O)(c2ccccc2)c2ccccc2)O1 (configuration not stated)
inactive: dose: 6.25 mg/kg/injection, schedule: Q04DX003 (ip), vehicle: saline sonified 109 % of control | dose: 12.5 mg/kg/injection, schedule: Q04DX003 (ip), vehicle: saline sonified 90 % of control | dose: 25.0 mg/kg/injection, schedule: Q04DX003 (ip), vehicle: saline sonified 90 % of control

CCS(=O)c1ncc2cnccn12 (configuration not stated)
inactive: dose: 12.5 mg/kg/injection, schedule: Q04DX003 (ip), vehicle: water 109 % of control | dose: 25.0 mg/kg/injection, schedule: Q04DX003 (ip), vehicle: water 92 % of control | [2] 102 % of control | dose: 50.0 mg/kg/injection, schedule: Q04DX003 (ip), vehicle: water 100 % of control and 101 % of control | [3] 94 % of control

Clc1nc2nc(Cl)n(Cl)c2nc1Cl
inactive: dose: 12.5 mg/kg/injection, schedule: Q01DX006 (ip), vehicle: saline with Tween-80 100 % of control | dose: 25.0 mg/kg/injection, schedule: Q01DX006 (ip), vehicle: saline with Tween-80 91 % of control | [4] 86 % of control | dose: 25.0 mg/kg/injection, schedule: Q01DX009 (ip), vehicle: water 109 % of control | dose: 50.0 mg/kg/injection, schedule: Q01DX006 (ip), vehicle: saline with Tween-80 109 % of control | [5] 86 % of control | dose: 50.0 mg/kg/injection, schedule: Q04DX003 (ip), vehicle: saline with Tween-80 105 % of control | [3] 111 % of control | [6] 105 % of control | [7] 116 % of control | [8] 112 % of control

COc1cc(N2C(N)=NC(N)=NC2(C)C)cc(OC)c1OC
inactive: dose: 6.25 mg/kg/injection, schedule: Q04DX003 (ip), vehicle: saline 100 % of control | [9] 115 % of control | [10] 100 % of control

COc1ccc(/C=C(C(=O)O)/C(=C/c2ccc(OC)c(OC)c2)C(=O)O)cc1OC
inactive: [1] 100 % of control | [11] 109 % of control | [12] 95 % of control | [13] 95 % of control | [14] 112 % of control

CN(C)P(=O)(N(C)C)N(C)CCN(C)P(=O)(N(C)C)N(C)C
inactive: [15] 108 % of control | [16] 101 % of control | [17] 101 % of control and 111 % of control

Nc1cccnc1
inactive: dose: 5.0 mg/kg/injection, schedule: Q01DX009 (ip), vehicle: saline 100 % of control | dose: 10.0 mg/kg/injection, schedule: Q01DX009 (ip), vehicle: saline 110 % of control

C[N+](C)(CCc1ccccc1)CC(O)COc1ccccc1 (configuration not stated)
inactive: dose: 9.5 mg/kg/injection, schedule: Q01DX009 (ip), vehicle: Klucel (hydroxypropylcellulose) (HPC) 96 % of control | dose: 9.5 mg/kg/injection, schedule: Q04DX003 (ip), vehicle: Klucel (hydroxypropylcellulose) (HPC) 95 % of control | dose: 19.0 mg/kg/injection, schedule: Q01DX009 (ip), vehicle: Klucel (hydroxypropylcellulose) (HPC) 96 % of control | dose: 19.0 mg/kg/injection, schedule: Q04DX003 (ip), vehicle: Klucel (hydroxypropylcellulose) (HPC) 95 % of control | dose: 38.0 mg/kg/injection, schedule: Q04DX003 (ip), vehicle: Klucel (hydroxypropylcellulose) (HPC) 100 % of control

CC(C)(C)C([NH-])=O.CC(C)(C)C([NH-])=O.[Cl][Pt+2][Cl]
inactive: dose: 3.12 mg/kg/injection, schedule: Q01DX009 (ip), vehicle: saline 88 % of control | dose: 6.25 mg/kg/injection, schedule: Q01DX009 (ip), vehicle: saline 92 % of control | [15] 108 % of control | [9] 105 % of control | [16] 92 % of control | [10] 107 % of control | [17] 94 % of control | dose: 50.0 mg/kg/injection, schedule: Q04DX003 (ip), vehicle: saline 98 % of control

O=C1NC(c2cccc3ccccc23)Nc2ccccc21 (configuration not stated)
active: [2] 169 % of control | [3] 200 % of control
inactive: [7] 104 % of control

CCCN(/C=C/C=C/C=[N+](CCC)CCC)CCC
inactive: dose: 0.03 mg/kg/injection, schedule: Q01DX009 (ip), vehicle: saline 99 % of control | dose: 0.05 mg/kg/injection, schedule: Q01DX009 (ip), vehicle: saline 104 % of control | dose: 0.1 mg/kg/injection, schedule: Q01DX009 (ip), vehicle: saline 106 % of control

COc1ccc(N2CCN(c3ccc([N+](=O)[O-])c4no[n+]([O-])c34)CC2)cc1
inactive: dose: 15.0 mg/kg/injection, schedule: Q04DX003 (ip), vehicle: saline with Tween-80 101 % of control | dose: 30.0 mg/kg/injection, schedule: Q04DX003 (ip), vehicle: saline with Tween-80 100 % of control | dose: 60.0 mg/kg/injection, schedule: Q04DX003 (ip), vehicle: saline with Tween-80 104 % of control

OC(C(c1ccccc1)N1CCCCC1)C(O)(c1ccccc1)c1ccccc1 (configuration not stated)
inactive: dose: 100.0 mg/kg/injection, schedule: Q01DX001 (ip), vehicle: saline sonified 100 % of control | dose: 200.0 mg/kg/injection, schedule: Q01DX001 (ip), vehicle: saline sonified 105 % of control | dose: 400.0 mg/kg/injection, schedule: Q01DX001 (ip), vehicle: saline sonified 100 % of control

COc1ccc2c(c1)CCC1C2CCC2(C)/C(=N/O)C(Cl)C(O)C12 (configuration not stated)
inactive: dose: 6.25 mg/kg/injection, schedule: Q01DX001 (ip), vehicle: saline with Tween-80 100 % of control | dose: 12.5 mg/kg/injection, schedule: Q01DX001 (ip), vehicle: saline with Tween-80 109 % of control | dose: 25.0 mg/kg/injection, schedule: Q01DX001 (ip), vehicle: saline with Tween-80 97 % of control

C/C(C/C(C)=N\NC(=O)CN)=N/NC(=O)CN
inactive: dose: 33.75 mg/kg/injection, schedule: Q01DX009 (ip), vehicle: saline with Tween-80 104 % of control | dose: 67.5 mg/kg/injection, schedule: Q01DX009 (ip), vehicle: saline with Tween-80 100 % of control | dose: 135.0 mg/kg/injection, schedule: Q01DX009 (ip), vehicle: saline with Tween-80 106 % of control

O=C1CCS(=O)(=O)c2ccccc21
inactive: dose: 6.25 mg/kg/injection, schedule: Q01DX009 (ip), vehicle: saline with Tween-80 101 % of control | dose: 12.5 mg/kg/injection, schedule: Q01DX009 (ip), vehicle: saline with Tween-80 117 % of control | [4] 105 % of control | [5] 98 % of control

COc1ccc(C2(C#N)CCCCC2)cc1
inactive: [1] 104 % of control | dose: 100.0 mg/kg/injection, schedule: Q04DX003 (ip), vehicle: Klucel (hydroxypropylcellulose) (HPC) 95 % of control | [11] 91 % of control | [12] 108 % of control | [13] 108 % of control | [14] 91 % of control

CN(C)N=Nc1ccccc1C(N)=O
active: dose: 75.0 mg/kg/injection, schedule: Q01DX009 (ip), vehicle: saline with Tween-80 161 % of control
inactive: dose: 22.0 mg/kg/injection, schedule: Q01DX009 (ip), vehicle: saline with Tween-80 111 % of control | dose: 26.6 mg/kg/injection, schedule: Q01DX009 (ip), vehicle: saline with Tween-80 104 % of control | dose: 33.0 mg/kg/injection, schedule: Q01DX009 (ip), vehicle: saline with Tween-80 100 % of control | dose: 40.0 mg/kg/injection, schedule: Q01DX009 (ip), vehicle: saline with Tween-80 91 % of control | [5] 111 % of control | dose: 60.0 mg/kg/injection, schedule: Q01DX009 (ip), vehicle: saline with Tween-80 120 % of control

NC(=S)c1ccncc1
inactive: [6] 86 % of control | [8] 86 % of control | dose: 400.0 mg/kg/injection, schedule: Q04DX003 (ip), vehicle: saline with Tween-80 90 % of control

Source: PubChem BioAssay AID328 (DTP/NCI, 2004)
